Experimental findings from PMC11930087, “Mobility of four structural regions drives isoform-specific properties of photoenzyme LPOR in plants” (The Journal of Biological Chemistry, 2025) are described below.

Molecules are shown by their SMILES. Like-named read-outs stand apart in the source and are kept apart here. Where only a bound is given, the exact number is not on record here.

One experiment addresses T1, HaPOR3 (Helianthus annuus, UniProt A0A251UT40).
T1 construct: gene POR; transit peptide removed; pET15b
T1 sequence (A0A251UT40 51-384): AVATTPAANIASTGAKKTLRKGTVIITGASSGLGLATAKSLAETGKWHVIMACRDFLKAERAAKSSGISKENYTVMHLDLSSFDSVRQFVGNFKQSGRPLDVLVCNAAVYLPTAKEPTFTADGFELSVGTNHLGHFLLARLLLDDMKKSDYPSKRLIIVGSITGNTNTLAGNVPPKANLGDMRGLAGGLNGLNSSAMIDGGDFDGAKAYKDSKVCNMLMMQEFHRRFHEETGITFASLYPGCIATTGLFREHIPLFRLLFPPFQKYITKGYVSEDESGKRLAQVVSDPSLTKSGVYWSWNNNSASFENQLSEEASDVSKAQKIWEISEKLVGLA
In words: biochemical. The following applies: 400 uM OPT lipids, 5 uM Pchlide, 15 uM LPOR. As for the experimental part:
(§1) (Figs. 3A, S2). […] The resulting plots resembled saturation curves, to which a hyperbolic function similar to the Michaelis–Menten equation could be fitted (Figs. 3B, S3, Materials and Methods). […] However, KM^L values were consistently lower than KM^D values. […] The addition of 400 μM OPT lipids lowered the KM^D constant for all isoforms, except for SlPOR1, SlPOR3, HaPOR1, HaPOR2, and PeaPOR, where the constant remained unchanged within error estimates. […] Shaded areas represent the SD between replicates. […] A fit of a modified Michaelis–Menten equation is shown, along with the graphical representation of KM^D (B) or KM^L (C). Spectra corresponding to the given F648/F635 values (B) or F Chlide/F Pchlide values (C) are shown on the right side of the plot. D, relationship between KM^D and KM^L for investigated isoforms. The overall distribution of data points is shown in gray. Error bars represent the uncertainty associated with the fitted constant KM^x. Closed symbols represent constants determined for samples not supplemented with lipids, while open symbols these determined in the presence of 400 μM OPT lipids. LPOR, light-dependent protochlorophyllide oxidoreductase; Pchlide, protochlorophyllide; Chlide, chlorophyllide.

The next experiment has as its target T2, AtPORB (Arabidopsis thaliana, UniProt P21218).
T2 construct: gene PORB
T2 sequence (P21218 67-401): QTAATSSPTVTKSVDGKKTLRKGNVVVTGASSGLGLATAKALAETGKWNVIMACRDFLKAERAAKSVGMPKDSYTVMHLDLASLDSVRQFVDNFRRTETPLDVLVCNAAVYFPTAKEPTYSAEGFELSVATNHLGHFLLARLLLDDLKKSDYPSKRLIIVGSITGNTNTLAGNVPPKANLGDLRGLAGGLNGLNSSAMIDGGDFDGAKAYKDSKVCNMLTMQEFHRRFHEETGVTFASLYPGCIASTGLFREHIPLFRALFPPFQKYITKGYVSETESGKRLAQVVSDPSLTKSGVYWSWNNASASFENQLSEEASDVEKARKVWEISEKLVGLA
In words: […] K Pchlide fluorescence in darkness, F648/F635 ratio vs NADPH, hyperbolic fit. The following applies: lipid-free; 5 μM Pchlide, 15 μM LPOR, pH 7.1, room-temperature dark incubation; apparent parameter, exact value in supplement; read-out: KM^D. It is filed as binding.

The target of experiment [1] is T3, SlPOR1 (Solanum lycopersicum, UniProt A0A3Q7HEX8).
T3 construct: gene POR2; transit peptide removed; pET15b
T3 sequence (A0A3Q7HEX8 65-399): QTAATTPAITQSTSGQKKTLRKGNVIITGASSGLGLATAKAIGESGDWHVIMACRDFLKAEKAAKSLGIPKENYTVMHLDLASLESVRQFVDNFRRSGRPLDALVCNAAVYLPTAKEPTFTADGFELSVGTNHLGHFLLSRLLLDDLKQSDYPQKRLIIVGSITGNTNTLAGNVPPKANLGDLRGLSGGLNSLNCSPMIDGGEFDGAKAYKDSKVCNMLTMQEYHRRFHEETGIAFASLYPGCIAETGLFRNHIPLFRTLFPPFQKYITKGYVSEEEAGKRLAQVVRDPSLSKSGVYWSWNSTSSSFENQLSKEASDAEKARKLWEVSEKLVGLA
Described as above. As to conditions: lipid-free; 5 μM Pchlide, 15 μM LPOR, pH 7.1, room-temperature dark incubation; apparent parameter, exact value in supplement; read-out: KM^D. It is filed as binding.

Experiment [2] concerns the target T3, SlPOR1. As to conditions: 5 uM Pchlide, 15 uM LPOR, binder. As for the experimental part:
as §1

For a further experiment, the target named is T4, PinPOR (Pinus mugo, UniProt Q41202).
T4 construct: transit peptide removed; pET15b
T4 sequence (Q41202 67-400): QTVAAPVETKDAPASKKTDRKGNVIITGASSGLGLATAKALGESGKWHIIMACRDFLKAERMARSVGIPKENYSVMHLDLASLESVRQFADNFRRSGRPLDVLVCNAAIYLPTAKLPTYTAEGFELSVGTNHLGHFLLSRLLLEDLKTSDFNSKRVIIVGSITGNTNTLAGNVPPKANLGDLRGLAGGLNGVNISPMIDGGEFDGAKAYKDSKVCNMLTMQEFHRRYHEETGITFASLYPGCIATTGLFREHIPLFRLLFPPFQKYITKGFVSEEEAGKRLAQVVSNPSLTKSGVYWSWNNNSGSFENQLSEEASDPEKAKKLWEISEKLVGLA
The experiment is described as follows: […] K Pchlide fluorescence in darkness, F648/F635 ratio vs NADPH, hyperbolic fit. It is filed as binding. The following applies: lipid-free; 5 μM Pchlide, 15 μM LPOR, pH 7.1, room-temperature dark incubation; apparent parameter, exact value in supplement; read-out: KM^D.

Another experiment deals with T5, HaPOR2 (Helianthus annuus, UniProt A0A251TWA4).
T5 construct: gene PORA; transit peptide removed; pET15b
T5 sequence (A0A251TWA4 53-387): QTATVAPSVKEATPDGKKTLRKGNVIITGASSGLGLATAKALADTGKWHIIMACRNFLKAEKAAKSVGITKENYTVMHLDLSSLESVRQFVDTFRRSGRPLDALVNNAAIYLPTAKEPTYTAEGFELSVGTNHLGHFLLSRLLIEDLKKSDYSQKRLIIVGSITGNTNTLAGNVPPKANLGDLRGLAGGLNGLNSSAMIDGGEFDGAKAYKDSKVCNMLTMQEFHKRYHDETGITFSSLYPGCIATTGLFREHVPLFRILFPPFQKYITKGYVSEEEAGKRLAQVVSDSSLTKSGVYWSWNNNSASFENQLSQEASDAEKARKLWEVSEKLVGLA
The experiment is described as above. It is filed as binding. As to conditions: lipid-free; 5 μM Pchlide, 15 μM LPOR, pH 7.1, room-temperature dark incubation; apparent parameter, exact value in supplement; read-out: KM^D.

`NC(=O)C1=CN([C@@H]2O[C@H](COP(=O)(O)OP(=O)(O)OC[C@H]3O[C@@H](n4cnc5c(N)ncnc54)[C@H](OP(=O)(O)O)[C@@H]3O)[C@@H](O)[C@H]2O)C=CC1` [NADPH]: the apparent Michaelis constant in dark (KM^D) on HaPOR3 came to 3.9 µM. In addition, the Kd is > 100 µM at AtPORB, < 10 µM at SlPOR1 [1], < 10 µM at PinPOR and < 10 µM on HaPOR2. Also, the apparent Michaelis constant in the dark (KM^D) at SlPOR1 [2] (400 uM OPT lipids) is 7.2 µM; at SlPOR1 [2] (no lipids), 8.6 µM.
